Assay results published in PubChem BioAssay AID2020 (NMMLSC, 2009).
Active and inactive are the calls of the source.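 Rule for the calls: active = EC50 at or below 30 µM together with a response span of at least a set limit; inactive = the rest.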

Molecular target: Cell division control protein 42 homolog (Homo sapiens) (UniProt P60953)
Test: activated Cdc42 mutant GTP binding inhibitors, SAR follow-up, biochemical, pyrazoline analogs, multiplex bead flow cytometry, Ki (AID 2020)
Conditions: bead-based flow cytometry, Bodipy-FL-GTP binding; for Ki: measured here: Ki calculated from EC50

Chain of Cell division control protein 42 homolog (Homo sapiens) (P60953 whole entry, looked up, change not shown): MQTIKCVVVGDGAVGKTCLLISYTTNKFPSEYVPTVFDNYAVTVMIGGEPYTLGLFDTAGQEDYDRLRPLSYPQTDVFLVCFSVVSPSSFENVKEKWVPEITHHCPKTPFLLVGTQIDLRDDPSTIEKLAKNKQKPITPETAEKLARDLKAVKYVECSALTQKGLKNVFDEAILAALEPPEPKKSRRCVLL

Row | Structure (SMILES) | EC50 | Ki
1 | COc1ccc(C2CC(c3ccc(F)cc3)=NN2c2cccc(F)c2)cc1OC (stereo unspecified) | inactive | 4.88 µM
2 | COc1ccc(C2CC(c3ccc(F)cc3)=NN2c2ccccc2)cc1OC (stereo unspecified) | > 30 µM (inactive) | 
3 | NS(=O)(=O)c1ccc(N2N=C(c3ccccc3)CC2c2ccc(Cl)cc2)cc1 (stereo unspecified) | 3.64 µM | 0.56 µM
4 | COc1ccc(C2=NN(c3cccc(F)c3)C(c3ccc(Cl)cc3)C2)cc1 (stereo unspecified) | inactive | 4.86 µM
5 | Cc1ccccc1N1N=C(c2ccccc2)CC1c1cccc([N+](=O)[O-])c1 (stereo unspecified) | > 30 µM (inactive) | 
6 | COc1ccc(C2CC(c3ccccc3OC)=NN2c2ccc(S(N)(=O)=O)cc2)cc1 (stereo unspecified) | 5.52 µM | 0.85 µM
7 | COc1ccc(C2=NN(c3ccccc3)C(c3ccccc3C(F)(F)F)C2)cc1 (stereo unspecified) | inactive | 3.5 µM
8 | Cc1ccccc1C1CC(c2ccccc2)=NN1c1ccc(S(N)(=O)=O)cc1 (stereo unspecified) | 13.6 µM | 2.1 µM
9 | COc1ccc(C2CC(c3ccc(Cl)cc3)=NN2c2ccc(S(N)(=O)=O)cc2)cc1 (stereo unspecified) | 4.05 µM | 0.63 µM
10 | COc1ccc(C2CC(c3ccc(F)cc3)=NN2c2cc(Cl)ccc2Cl)cc1 (stereo unspecified) | > 30 µM (inactive) | 
11 | NS(=O)(=O)c1ccc(N2N=C(c3ccc(Br)cc3)CC2c2ccc(F)cc2)cc1 (stereo unspecified) | > 30 µM (inactive) | 
12 | NS(=O)(=O)c1ccc(N2N=C(c3ccccc3)CC2c2ccc(Br)cc2)cc1 (stereo unspecified) | 1.7 µM | 0.26 µM
13 | COc1ccc(C2CC(c3ccccc3)=NN2c2ccc([N+](=O)[O-])cc2)cc1 (stereo unspecified) | > 30 µM (inactive) | 
14 | COc1ccc(C2CC(c3ccncc3)=NN2c2ccc(S(N)(=O)=O)cc2)cc1 (stereo unspecified) | > 30 µM (inactive) | 
15 | O=[N+]([O-])c1cccc(C2CC(c3ccc(F)cc3)=NN2c2ccccc2)c1 (stereo unspecified) | > 30 µM (inactive) | 
16 | Clc1cccc(N2N=C(c3ccccc3)CC2c2ccccc2)c1 (stereo unspecified) | > 30 µM (inactive) | 
17 | CN(C)c1ccc(C2CC(c3ccccc3)=NN2c2ccccc2)cc1 (stereo unspecified) | inactive | 0.01 µM
18 | FC(F)(F)c1cccc(N2N=C(c3ccc(Cl)cc3)CC2c2ccccc2Cl)c1 (stereo unspecified) | > 30 µM (inactive) | 
19 | COc1ccc(C2CC(C3CCCCC3)=NN2c2ccc(S(N)(=O)=O)cc2)cc1 (stereo unspecified) | > 30 µM (inactive) | 
20 | O=[N+]([O-])c1ccc(N2N=C(c3ccccc3)CC2c2ccccc2)cc1 (stereo unspecified) | > 30 µM (inactive) | 
21 | COc1ccc(C2CC(c3ccc(Br)cc3)=NN2c2ccccc2Cl)cc1 (stereo unspecified) | > 30 µM (inactive) | 
22 | NS(=O)(=O)c1ccc(N2N=C(c3ccccc3)CC2c2cccc(Br)c2)cc1 (stereo unspecified) | 3.67 µM | 0.57 µM

Row | Structure (SMILES) | EC50 | Ki
23 | COc1ccc(C2CC(c3cccc(OC)c3)=NN2c2ccc(S(N)(=O)=O)cc2)cc1 (stereo unspecified) | 1.59 µM | 0.25 µM
24 | O=S(=O)(c1ccc(N2N=C(c3ccc(Br)cc3)CC2c2ccccc2)cc1)C(F)F (stereo unspecified) | > 30 µM (inactive) | 
25 | COc1ccc(C2CC(c3ccccc3)=NN2c2ccc(C(=O)O)cc2)cc1 (stereo unspecified) | > 30 µM (inactive) | 
26 | COc1ccc(-c2cc(-c3ccccc3)nn2-c2ccc(S(N)(=O)=O)cc2)cc1 | inactive | 0.38 µM
27 | Fc1ccccc1C1CC(c2ccc(Br)cc2)=NN1c1ccc(Br)cc1 (stereo unspecified) | > 30 µM (inactive) | 
28 | COc1ccc(C2CC(c3ccc(C(F)(F)F)cc3)=NN2c2ccc(S(N)(=O)=O)cc2)cc1 (stereo unspecified) | > 30 µM (inactive) | 
29 | CN(C)c1ccc(C2CC(c3ccccc3)=NN2c2ccc([N+](=O)[O-])cc2)cc1 (stereo unspecified) | > 30 µM (inactive) | 
30 | COc1ccccc1C1CC(c2ccccc2)=NN1c1ccc(S(N)(=O)=O)cc1 (stereo unspecified) | > 30 µM (inactive) | 
31 | CC(=O)Oc1ccc(C2=NN(c3ccccc3)C(c3ccccc3)C2)cc1 (stereo unspecified) | inactive | 3.77 µM
32 | COc1ccc(C2CC(c3cccc(C)c3)=NN2c2ccc(S(N)(=O)=O)cc2)cc1 (stereo unspecified) | 4.05 µM | 0.63 µM
33 | COc1ccc(C2CC(c3ccccc3)=NN2c2ccc(C(N)=O)cc2)cc1 (stereo unspecified) | > 30 µM (inactive) | 
34 | COc1ccc(C2CC(c3cccc(N(C)C)c3)=NN2c2ccc(S(N)(=O)=O)cc2)cc1 (stereo unspecified) | > 30 µM (inactive) | 
35 | Cc1ccc(C2CC(c3ccccc3)=NN2c2ccc(S(N)(=O)=O)cc2)cc1 (stereo unspecified) | 5.04 µM | 0.78 µM
36 | Fc1ccc(C2=NN(c3cccc(Br)c3)C(c3ccccc3)C2)cc1 (stereo unspecified) | > 30 µM (inactive) | 
37 | O=[N+]([O-])c1ccc(N2N=C(c3ccccc3)CC2c2ccc(O)cc2)cc1 (stereo unspecified) | > 30 µM (inactive) | 
38 | NS(=O)(=O)c1ccc(N2N=C(c3ccccc3)CC2c2cccc(Cl)c2)cc1 (stereo unspecified) | 3.62 µM | 0.56 µM
39 | COc1ccc(C2CC(c3cccc(C(F)(F)F)c3)=NN2c2ccc(S(N)(=O)=O)cc2)cc1 (stereo unspecified) | > 30 µM (inactive) | 
40 | Cc1ccc(-c2cc(C(F)(F)F)nn2-c2ccc(S(N)(=O)=O)cc2)cc1 | > 30 µM (inactive) | 
41 | COc1ccc(C2CC(c3cccc(F)c3)=NN2c2ccc(S(N)(=O)=O)cc2)cc1 (stereo unspecified) | 3.45 µM | 0.53 µM
42 | NS(=O)(=O)c1ccc(N2N=C(c3ccc(Cl)cc3)CC2c2ccccc2)cc1 (stereo unspecified) | 7.11 µM | 1.1 µM
43 | COc1ccc(C2CC(c3cccc(Cl)c3)=NN2c2ccc(S(N)(=O)=O)cc2)cc1 (stereo unspecified) | 2.08 µM | 0.32 µM
44 | CCc1ccc(C2=NN(c3ccc(S(N)(=O)=O)cc3)C(c3ccc(F)cc3)C2)cc1 (stereo unspecified) | inactive | 

Row | Structure (SMILES) | EC50 | Ki
45 | COc1cccc(C2CC(c3ccccc3)=NN2c2ccc(S(N)(=O)=O)cc2)c1 (stereo unspecified) | 4.32 µM | 0.67 µM
46 | COc1ccc(C2CC(C(C)(C)C)=NN2c2ccc(S(N)(=O)=O)cc2)cc1 (stereo unspecified) | > 30 µM (inactive) | 
47 | NS(=O)(=O)c1ccc(N2N=C(c3ccccc3)CC2c2ccccc2Cl)cc1 (stereo unspecified) | 7.4 µM | 1.14 µM
48 | O=S(=O)(O)c1ccc(N2N=C(c3ccccc3)CC2c2ccccc2)cc1 (stereo unspecified) | > 30 µM (inactive) | 
49 | COc1ccc(C2CC(c3ccc(F)cc3)=NN2c2ccc(S(N)(=O)=O)cc2)cc1 (stereo unspecified) | 5.47 µM | 0.85 µM
50 | COc1ccccc1N1N=C(c2ccccc2)CC1c1ccccc1 (stereo unspecified) | > 30 µM (inactive) | 
51 | COc1ccc(C2=NN(c3cccc(F)c3)C(c3ccc(OC)cc3)C2)cc1 (stereo unspecified) | > 30 µM (inactive) | 
52 | COc1ccc(C2=NN(c3ccccc3)C(c3ccc(Cl)cc3)C2)cc1 (stereo unspecified) | > 30 µM (inactive) | 
53 | Cc1cccc(N2N=C(c3ccccc3)CC2c2ccccc2)c1 (stereo unspecified) | > 30 µM (inactive) | 
54 | Clc1ccc(N2N=C(c3ccccc3)CC2c2ccccc2)cc1 (stereo unspecified) | > 30 µM (inactive) | 
55 | Brc1ccc(N2N=C(c3ccccc3)CC2c2ccccc2)cc1 (stereo unspecified) | > 30 µM (inactive) | 
56 | COc1ccc(C2=NN(c3ccc(Cl)c(Cl)c3)C(c3ccc(OC)cc3)C2)cc1 (stereo unspecified) | > 30 µM (inactive) | 
57 | COc1ccc(C2CC(c3ccccc3F)=NN2c2ccc(S(N)(=O)=O)cc2)cc1 (stereo unspecified) | 3.57 µM | 0.55 µM
58 | COc1ccc(C2CC(c3cccc(Br)c3)=NN2c2ccc(S(N)(=O)=O)cc2)cc1 (stereo unspecified) | inactive | 0.32 µM
59 | O=S(=O)(c1ccc(N2N=C(c3ccccc3)CC2c2ccccc2)cc1)C(F)F (stereo unspecified) | > 30 µM (inactive) | 
60 | COc1ccccc1C1CC(c2ccccc2)=NN1c1ccccc1 (stereo unspecified) | inactive | 0.09 µM
61 | COc1ccc(C2CC(C)=NN2c2ccc(S(N)(=O)=O)cc2)cc1 (stereo unspecified) | > 30 µM (inactive) | 
62 | COc1ccc(C2CC(c3ccsc3)=NN2c2ccc(S(N)(=O)=O)cc2)cc1 (stereo unspecified) | 7.34 µM | 1.14 µM
63 | COc1ccc(C2=NN(c3ccccc3)C(c3ccc(OC)c(OC)c3C(=O)O)C2)cc1 (stereo unspecified) | > 30 µM (inactive) | 
64 | CN(C)c1ccc(C2CC(c3ccc(Br)cc3)=NN2c2ccccc2)cc1 (stereo unspecified) | > 30 µM (inactive) | 
65 | O=[N+]([O-])c1cccc(C2CC(c3ccccc3)=NN2c2ccccc2)c1 (stereo unspecified) | > 30 µM (inactive) | 
66 | Cc1cccc(C2CC(c3ccccc3)=NN2c2ccc(S(N)(=O)=O)cc2)c1 (stereo unspecified) | 5.3 µM | 0.82 µM

Row | Structure (SMILES) | EC50 | Ki
67 | FC(F)(F)c1ccccc1C1CC(c2ccc(Br)cc2)=NN1c1ccccc1 (stereo unspecified) | > 30 µM (inactive) | 
68 | Cc1onc(-c2ccccc2)c1-c1ccc(S(N)(=O)=O)cc1 | > 30 µM (inactive) | 
69 | COc1ccc(C2CC(c3ccc(Cl)cc3)=NN2c2ccccc2)cc1OC (stereo unspecified) | > 30 µM (inactive) | 
70 | NS(=O)(=O)c1ccc(N2N=C(c3ccccc3)CC2c2ccccc2Br)cc1 (stereo unspecified) | > 30 µM (inactive) | 
71 | COc1ccc(C2CC(c3ccccc3Br)=NN2c2ccc(S(N)(=O)=O)cc2)cc1 (stereo unspecified) | > 30 µM (inactive) | 
72 | COc1ccc(C2CC(c3cccs3)=NN2c2ccc(S(N)(=O)=O)cc2)cc1 (stereo unspecified) | 3.98 µM | 0.62 µM
73 | CN(C)c1ccc(C2CC(c3ccc(Cl)cc3)=NN2c2ccccc2)cc1 (stereo unspecified) | inactive | 4.67 µM
74 | Cc1ccccc1N1N=C(c2ccccc2)CC1c1ccc(N(C)C)cc1 (stereo unspecified) | > 30 µM (inactive) | 
75 | COc1ccc(C2CC(c3ccccc3C)=NN2c2ccc(S(N)(=O)=O)cc2)cc1 (stereo unspecified) | inactive | 0.36 µM
76 | COc1ccc(C2CC(c3ccc(N(C)C)cc3)=NN2c2ccc(S(N)(=O)=O)cc2)cc1 (stereo unspecified) | > 30 µM (inactive) | 
77 | COc1ccc(C2CC(c3cccnc3)=NN2c2ccc(S(N)(=O)=O)cc2)cc1 (stereo unspecified) | > 30 µM (inactive) | 
78 | COc1ccc(C2=NN(c3ccccc3F)C(c3ccc(F)cc3)C2)cc1 (stereo unspecified) | > 30 µM (inactive) | 
79 | COc1ccc(C2CC(c3ccccc3)=NN2c2ccc(Cl)c(C(=O)O)c2)cc1OC (stereo unspecified) | > 30 µM (inactive) | 
80 | COc1ccc(C2CC(c3ccccc3)=NN2c2ccc(S(N)(=O)=O)cc2)cc1OC (stereo unspecified) | 6.05 µM | 0.94 µM
81 | CN(C)c1ccc(C2CC(c3ccc(F)cc3)=NN2c2ccccc2)cc1 (stereo unspecified) | > 30 µM (inactive) | 
82 | COc1ccc(C2CC(c3ccccc3)=NN2c2cccc(S(N)(=O)=O)c2)cc1 (stereo unspecified) | inactive | 0.01 µM
83 | COc1ccc(C2CC(c3ccccc3)=NN2c2ccc(Cl)c(C(=O)O)c2)cc1 (stereo unspecified) | > 30 µM (inactive) | 
84 | COc1ccc(C2CC(c3ccccc3Cl)=NN2c2ccc(S(N)(=O)=O)cc2)cc1 (stereo unspecified) | 2.88 µM | 0.45 µM
85 | O=C(O)c1ccc(N2N=C(c3ccccc3)CC2c2ccccc2)cc1 (stereo unspecified) | > 30 µM (inactive) | 
86 | COc1ccc(C2CC(c3ccccc3C(F)(F)F)=NN2c2ccc(S(N)(=O)=O)cc2)cc1 (stereo unspecified) | > 30 µM (inactive) | 
87 | COc1ccc(C2=NN(c3ccc(S(N)(=O)=O)cc3)C(c3ccc(OC)cc3)C2)cc1 (stereo unspecified) | inactive | 0.39 µM
